In US20250382331A1, “Carrier Peptide Fragment and Use Thereof” (TOAGOSEI CO., LTD., priority 2022, published 2025):
Primed or numbered codes have the meaning given here. FAM = 5(6)-carboxyfluorescein; FAM″ = C-terminal FAM dye

tested on: NSC-34 cells; test: Evaluation on cell membrane permeability by flow cytometry; type: cell-based, mouse; conditions: 10 μM construct (additive), 0.5% DMSO, 20 hours incubation, flow cytometer FL2
Method: As the eukaryotic cells, NSC-34 cells (mouse motor neuron-like hybrid cell line) were used and the cell membrane permeability of the constructs 1 to 4 was analyzed. In Examples 1 to 4, the prepared samples 1 to 4 were used, respectively, and in Example 5, a FAM solution was used.
The NSC-34 cells were cultured in 10% fetal bovine serum (FBS)-containing Dulbecco's modified Eagle's medium (DMEM (Cat No. 044-29765, manufactured by FUJIFILM Wako Pure Chemical Corporation)), which is a normal culture medium.
The NSC-34 cells that adhered to a culture plate were cleaned with PBS and then, a 0.25%-trypsin/EDTA solution was added thereto, and incubation was performed for three minutes at 37° C. After the incubation, the aforementioned 10% FBS-containing DMEM was added to deactivate trypsin and then, five-minute centrifugal separation was performed at 150×g to precipitate the cells. After the supernatant generated by the centrifugal separation was removed, the 10% FBS-containing DMEM was added to the precipitate (cell pellet) to prepare a cell suspension of about 2×10^5 cells/mL. The cell suspension was added by 1 mL to a well of a commercially available six-hole (well) plate (manufactured by AGC TECHNO GLASS Co., Ltd.) so as to seed the cell (about 2×10^5 cells/well). In addition, the 2 mM sample solution 1 was diluted with the 10% FBS-containing DMEM to prepare the sample solution 1 in which the concentration of the sample 1 was 20 μM. Then, 1 mL of the 20 μM sample solution 1 was added to the well (that is, so that the concentration of the sample 1 became 10 μM and the DMSO concentration became 0.5% in the culture solution in the well). After that, the cell was incubated for 20 hours at 37° C. under a 5% CO2 condition.
After the 20-hour incubation, the culture supernatant was removed from the well and the cells in the well were cleaned twice with 1 mL of PBS. Next, 200 μL of the 0.25% trypsin/EDTA solution was added to the well and the incubation was performed for three minutes at 37° C. After the incubation, 400 μL of the 10% FBS-containing DMEM was added to the well to deactivate the trypsin. Subsequently, the cell suspension in the well was transferred to a tube and the cells were collected. After that, 600 μL of PBS was added further to the well to clean the well. Then, PBS in the well was transferred to the tube, so that the cells remaining in the well were collected in the tube. This tube was subjected to five-minute centrifugal separation at 4° C. under a condition of 210×g. After the centrifugal separation, the supernatant was removed and the precipitate (cell pellet) was suspended (cleaned) with 1 mL of PBS, which was followed by the centrifugal separation under the same condition as that described above. After this operation was repeated twice, the supernatant was removed and thus, the cells (cell pellet) cultured in a culture medium containing the sample 1 were obtained.
Regarding the obtained cells (cell pellet), the cell membrane permeability of the sample 1 was analyzed using a flow cytometer. […]
Using the aforementioned flow cytometer, gating based on forward scatter (FSC) and side scatter (SSC) was performed to set a gate about a cell group to be analyzed, and the fluorescence intensity was measured about the cell group in this gate. […] The fluorescence intensity was measured using a fluorescence detector FL2 of the flow cytometer (optimum detection wavelength around 543 nm) capable of detecting the fluorescence wavelength of FAM. […]

| Substance | MFI (median fluorescence intensity) |
| --- | --- |
| 5(6)-carboxyfluorescein [Example 5, reference compound] | 8.15 |
| Ac-KKRTLRKNSNRKKR-FAM (Ac-KKRTLRKNSNRKKR-{FAM}) [Example 4] | 16.7 |
| Ac-KKRTLRKSNNRKKR-FAM (Ac-KKRTLRKSNNRKKR-{FAM}) [Example 3] | 13.6 |
| Ac-KKRTLRKSNSRKKR-FAM (Ac-KKRTLRKSNSRKKR-{FAM″}) [Example 1] | 11.2 |
| Ac-KKRTLRKSSNRKKR-FAM (Ac-KKRTLRKSSNRKKR-{FAM″}) [Example 2] | 12.9 |
